Where a SMILES comes first, the peptide text is derived from it. Bridges are numbered along the chain shown (N, C = ends). Roman numbers before positions name the chains, in order.
How the values were obtained:
HUVEC [1] = test: [125I]-MN20054 binding/uptake by HUVEC; set-up: species or system human; details: 100-fold excess unlabeled peptide, 60 min; for inhibition of association of [125I]-MN20054 with HUVEC: 37°C, triplicate wells (Figure 6C)
Method: For binding/uptake studies on endothelial cell, HUVEC were grown to confluence in 12-well tissue culture plates. Forty pmol of [^125I]-MN20054 (∼20 Ci/mmol) in PBS with 0.5% BSA, pH 7.5, was added in a volume of 1.0 ml in the presence or absence of a 100-fold excess of the indicated competitor. The plates were allowed to incubate for 1 h at 37°C on a rocking platform and the wells were aspirated and washed 3X with 2.0 ml of ice-cold PBS/BSA. One ml of 1.0 N NaOH was added to each well for 30 min at RT to solubilize the cells and then 0.9 ml was removed from each well and counted in a gamma scintillation spectrophotometer.

HUVEC [2] = test: Staurosporine-induced apoptosis in HUVEC (Cell Death Detection ELISA); format: cell-based, human; details: for protection against staurosporine-induced apoptosis: 50 µM peptide 3 h before staurosporine (500 nM), measured 18 h after staurosporine (Figure 11B)
Method: Apoptosis was measured in HUVEC using the Cell Death Detection ELISA^PLUS kit (Roche Diagnostics; Indianapolis, IN) according to the manufacturer's instructions. This assay is based on a quantitative sandwich-enzyme-immunoassay using mouse monoclonal antibodies directed against both DNA and histones, respectively. It allows the specific determination of mono- and oligonucleosomes in the cytoplasmic fraction of cell lysates (apoptosis) and in the supernatant of dying cells (necrosis). The apoptotic index (AI) was calculated as
where treatment refers to use of a known apoptosis- or necrosis-inducing agent (staurosporine, TNF-α).

TF = test: Monocyte-associated tissue factor (TF) ELISA; format: cell-based; details: human PBMC cultured 18-24 h with LPS; cell lysate, IMMUBIND Tissue Factor ELISA; IC50 estimated from graph
Method: Tissue Factor (TF): Monocyte-associated TF was quantitated in the following manner. PBMC were cultured in 48-well tissue culture plates as described below for PAF and LTB4 assays. At the end of the culture period (18-24 h) the supernatants were removed and stored frozen for cytokine assays. The wells of the plates were washed once with PBS and to each well was added 100 µL of Triton X-100 (10% [v/v] in H2O; Sigma, St. Louis, MO). The plates were placed on an orbital shaker for 12-18 h at 4°C and a speed of ~ 125 rpm. To each well was added 900 µL of sample buffer (10 mM PBS, pH 7.4, with 1% [w/v] BSA). The contents of each well were mixed well and removed for quantitation of TF using an IMMUBIND® Tissue Factor ELISA kit (American Diagnostica; Stamford, CT) according to the manufacturer’s instructions. Samples were diluted 1:10 in sample buffer prior to being assayed.

IL-6 = test: LPS-induced IL-6 release by human PBMC (sandwich ELISA); format: cell-based; details: 18-24 h, peptide 10 nM-100 µM in triplicate, IC50 estimated from graph
Method: (§1) Cytokine Assays: One-hundred µL of PBMC (2 x 10^6/ml in Complete Medium) were added to each well of a flat-bottom, 96-well tissue culture plate. To each well was then added 50 µL of media or peptide (4X desired final concentration; in Complete Medium) and 50 µL of lipopolysaccharide (LPS; S. typhosa; Sigma, St. Louis, MO; 400 ng/ml Complete Medium). Each peptide was tested in triplicate at 5 log10 concentrations ranging from 100 µM to 10 nM. Plates were incubate 18-24 h at 37°C in 5% humidified CO2. Plates were then centrifuged and 100 µL of supernatant removed from each well and stored frozen at -80°C until assayed. Cytokines (TNF-α, IL-1β, IL-6, GM-CSF) were measured by sandwich ELISA assays (R & D Systems; Minneapolis, MN) using the manufacturer’s instructions. The released cytokine concentration was determined from a standard curve using recombinant cytokine provided with each kit.

Chemotaxis = test: Monocyte and neutrophil chemotaxis to FMLP (micro-chemotaxis chamber); format: cell-based, human; details: cells pre-incubated 60 min at 37°C with peptide (10 nM-100 µM), FMLP 10^-8 or 10^-9 M, 90 min, triplicate
Method: Monocyte and Neutrophil Chemotaxis: For monocyte chemotaxis, PBMC were prepared as described above but washed and resuspended to 2 x 10^6/ml in HBSS (10 mM HEPES, 0.5% BSA [low-endotoxin; Sigma, St. Louis, MO], pH 7.0). The percentage of monocytes in the cell preparation was determined by myeloperoxidase staining of fixed, cytospin-prepared slides and usually ranged between 15-25%. For neutrophil chemotaxis, neutrophils were prepared as described above and routinely contained 97-99% neutrophils. Effects of test materials on chemotaxis were measured using 48-well micro-chemotaxis chambers (Neuro-Probe; Cabin John, MD). Briefly, to 450 µL of cell suspension in a polypropylene centrifuge tube was added 50 µL of buffer or test material. Each sample was tested in triplicate. The tubes were then incubated for 60 min at 37°C in a shaking water bath. […] The stained filters were mounted on slides and the number of cells migrating though the filters determined under 600X magnification for 5 fields/well. Inhibition of chemotaxis was determined using that slide for which the positive control (untreated cells; either 10^-8 or 10^-9 M FMLP) gave the strongest response and was calculated in the following manner: […]

Platelet Aggregation = test: Platelet aggregation; format: cell-based, human; details: for IC50: human blood cells
IL-1β = test: LPS-induced IL-1β release by human PBMC (sandwich ELISA); format: cell-based; details: 18-24 h, peptide 10 nM-100 µM in triplicate, IC50 estimated from graph
Method: as §1

TNF-α = test: LPS-induced TNF-α release by human PBMC (sandwich ELISA); format: cell-based; details: human PBMC + LPS (S. typhosa), 18-24 h, 37°C, peptide 10 nM-100 µM in triplicate, IC50 estimated from graph, representative set, one volunteer
Method: as §1

Molecule | inhibition of binding/uptake of [125I]-MN20054 by HUVEC (HUVEC [1]; 37°C (Figure 7)) | inhibition of association of [125I]-MN20054 with HUVEC (HUVEC [1]) | protection against staurosporine-induced apoptosis (HUVEC [2]) | effect of L-NAME pretreatment on protective effect against staurosporine-induced apoptosis (HUVEC [2]; 2 mM L-NAME 5 h, then 50 µM peptide 3 h, staurosporine 500 nM ON (Figure 12)) | maximal protection against staurosporine-induced apoptosis (HUVEC [2]; peptide added 3 h before staurosporine, up to 50 µM peptide, quadruplicate wells (Figure 10A, 10C)) | IC50 (TF) | IC50 (IL-6) | IC50 (Chemotaxis) | IC50 (Platelet Aggregation) | effect on ADP- and epinephrine-induced human platelet aggregation (Platelet Aggregation; in vitro, data not shown) | IC50 (IL-1β) | IC50 (TNF-α)
CC(C)C[C@H](NC(=O)CNC(=O)CNC(=O)[C@H](CCC(=O)O)NC(=O)[C@H](CCCCN)NC(=O)[C@H](CC(C)C)NC(=O)[C@H](Cc1ccccc1)NC(=O)[C@H](CC(C)C)NC(=O)[C@H](CC(C)C)NC(=O)[C@H](CC(=O)O)NC(=O)[C@H](CC(C)C)NC(=O)CNC(=O)[C@H](CCCNC(=N)N)NC(=O)[C@H](CCCNC(=N)N)NC(=O)[C@H](CC(N)=O)NC(=O)[C@H](CCC(N)=O)NC(=O)[C@@H](N)CC(C)C)C(=O)N[C@@H](CSSC[C@H](NC(=O)[C@H](CC(C)C)NC(=O)CNC(=O)CNC(=O)[C@H](CCC(=O)O)NC(=O)[C@H](CCCCN)NC(=O)[C@H](CC(C)C)NC(=O)[C@H](Cc1ccccc1)NC(=O)[C@H](CC(C)C)NC(=O)[C@H](CC(C)C)NC(=O)[C@H](CC(=O)O)NC(=O)[C@H](CC(C)C)NC(=O)CNC(=O)[C@H](CCCNC(=N)N)NC(=O)[C@H](CCCNC(=N)N)NC(=O)[C@H](CC(N)=O)NC(=O)[C@H](CCC(N)=O)NC(=O)[C@@H](N)CC(C)C)C(=O)O)C(=O)O [MN10021] (I: H-LQNRRGLDLLFLKEGGLC-OH / II: H-LQNRRGLDLLFLKEGGLC-OH; disulfide I:18-II:18) | ~75% | 77% | significant protection | no effect | ~60% | 12.5 µM | > 100 µM | 0.25 µM | 5 µM | inhibit | 17 µM | 6.2 µM
H-LGGEKLFLLDGRNQLC-OH (disulfide (positions not given here)) [MN20050] | – | no significant inhibition | no protective effective | – | – | > 100 µM | > 100 µM | > 100 µM | > 100 µM | – | > 100 µM | > 100 µM

From publication PMC3527569, “Anti-Inflammatory and Vasoprotective Activity of a Retroviral-Derived Peptide, Homologous to Human Endogenous Retroviruses: Endothelial Cell Effects” (PLoS ONE, 2012)
